# Target: GLP-1 Receptor (Homo sapiens, UniProt P43220)
# Test: GLP-1R agonist cAMP stimulation assay
# Type: cell-based
# Conditions: HEK293/GLP1R/CRE-LUC cells stably expressing the GLP-1 Receptor; cAMP dynamic 2 Kit (Cisbio); 30 min at 37° C.
# Description: Activation of GLP-1 receptor is known to stimulate cyclic AMP (cAMP) production in cells which indicates primary coupling to the G as subunit of the G protein heterotrimeric complex.
# To optimize functional activity directed toward G as coupling, a HEK293/CRE-Luc cell line developed by HDB stably expressing the GLP-1 Receptor was used. 200× concentration of compound working solutions were prepared (Agilent Technologies Bravo) with ½ log serial dilution in 384-well Echo LDV plate (Labcyte, Cat #LP-0200). 50 nL/well 200× concentration of compound working solutions were moved to 384-well white low volume plate (Greiner, Cat #784075) using Labcyte ECHO550.1×10^5 cells/mL HEK293/GLP1R/CRE-LUC (HD Biosciences) cell suspensions prepared with assay buffer [DPBS containing 0.5 mM IBMX (Sigma, Cat #I5879) and 0.1% BSA (GENVIEW, Cat #FA016-100 g)], 10 μL cell suspensions were added to each well of previous generated assay plate which already contains 50 nL compound at 200× concentration using ThermoFisher Multidrop Combi (1000 cells/well). Seal the plate and incubate at 37° C. with 5% CO2 for 30 min.
# After incubation the cAMP assay signal was generated using cAMP dynamic 2 Kit (Cisbio). 5 μL cAMP-d2 working solution was added to each well, followed with 5 μL Anti-cAMP antibody-cryptate working solution added to each well using ThermoFisher Multidrop Combi. Incubate at room temperature for 1 hour protected from light. Read the fluorescence at 665 and 615 nm with Reader PerkinElmer EnVision.
# Sequence of GLP-1 Receptor (P43220 24-463): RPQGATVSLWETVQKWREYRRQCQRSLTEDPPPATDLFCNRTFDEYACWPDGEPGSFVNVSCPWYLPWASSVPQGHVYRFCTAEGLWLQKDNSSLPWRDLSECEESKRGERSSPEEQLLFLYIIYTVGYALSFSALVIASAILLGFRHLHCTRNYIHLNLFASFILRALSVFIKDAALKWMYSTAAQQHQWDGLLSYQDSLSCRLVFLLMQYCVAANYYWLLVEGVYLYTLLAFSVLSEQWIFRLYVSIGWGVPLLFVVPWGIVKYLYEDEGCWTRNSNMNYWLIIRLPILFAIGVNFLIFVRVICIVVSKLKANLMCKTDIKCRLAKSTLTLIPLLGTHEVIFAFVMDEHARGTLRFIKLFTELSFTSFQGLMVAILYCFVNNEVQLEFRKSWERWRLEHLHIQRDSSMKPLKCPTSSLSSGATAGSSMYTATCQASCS
row,Compound,EC50
1,CC(=O)N1C[C@H](F)C[C@@H]1Cn1c(CN2CCC(c3cccc4c3OC[C@@H](c3ccc(C#N)cc3)O4)CC2)nc2ccc(C(=O)O)cc21 [Compound 113],4 nM
2,O=C(O)c1ccc2nc(CN3CC=C(c4cccc5c4OC[C@@H](c4ccc6cnn(CC(F)F)c6c4)O5)CC3)n(C[C@@H]3CCO3)c2c1 [Compound 117],0.42 nM
3,COc1cc(C(=O)O)cc2c1nc(CN1CCC(c3cccc4c3OC[C@@H](c3ccc(C#N)cc3)O4)CC1)n2[C@@H]1COC[C@@H]1OC [Compound 124],0.68 nM
4,N#Cc1ccc([C@@H]2COc3c(cccc3C3CCN(Cc4nc5ccc(C(=O)O)c(F)c5n4C[C@@H]4CCO4)CC3)O2)cc1 [Compound 103],0.057 nM
5,"O=C(O)c1ccc2nc(CN3CCC(c4cccc5c4OC[C@@H](c4ccc6cnn(CC(F)F)c6c4)O5)CC3)n(C[C@@H]3CCO3)c2c1 [Compound 102, 2-({4-[(2R)-2-[1-(2,2-difluoroethyl)-1H-indazol-6-yl]-2,3-dihydro-1,4-benzodioxin-5-yl]piperidin-1-yl}methyl)-1-{[(2S)-oxetan-2-yl]methyl}-1H-1,3-benzodiazole-6-carboxylic acid]",0.065 nM
6,"N#Cc1ccc([C@@H]2COc3c(cccc3C34CCN(Cc5nc6ccc(C(=O)O)cc6n5C[C@@H]5CCO5)CC3C4)O2)cc1 (stereo partly drawn) [Compound 110, 2-({6-[(2R)-2-(4-cyanophenyl)-2,3-dihydro-1,4-benzodioxin-5-yl]-3-azabicyclo[4.1.0]heptan-3-yl}methyl)-1-{[(2S)-oxetan-2-yl]methyl}-1H-1,3-benzodiazole-6-carboxylic acid]",100 nM
7,O=C(O)c1ccc2nc(CN3CCC4(c5cccc6c5OC[C@@H](c5ccc(Cl)cc5)O6)CC4C3)n(C[C@@H]3CCO3)c2c1 (stereo partly drawn) [Compound 127],500 nM
8,O=C(O)c1ccc2nc(CN3CCC(c4nccc5c4OC[C@@H](c4ccc(Cl)cc4)O5)CC3)n(C[C@@H]3CCO3)c2c1 [Compound 128],0.79 nM
9,"CO[C@@H]1COC[C@@H]1n1c(CN2CCC(c3cccc4c3OC[C@@H](c3ccc(C#N)cc3)O4)CC2)nc2ccc(C(=O)O)cc21 [Compound 114, 2-({4-[(2R)-2-(4-cyanophenyl)-2,3-dihydro-1,4-benzodioxin-5-yl]piperidin-1-yl}methyl)-1-[(3S,4S)-4-methoxyoxolan-3-yl]-1H-1,3-benzodiazole-6-carboxylic acid]",0.024 nM
10,N#Cc1ccc([C@@H]2COc3c(cccc3C3CCN(Cc4nc5ccc(C(=O)O)cc5n4CC4(C#N)CC4)CC3)O2)cc1 [Compound 107],0.18 nM
11,CC1=C(c2cccc3c2OC[C@@H](c2ccc(Cl)cc2)O3)CCN(Cc2nc3ccc(C(=O)O)cc3n2C[C@@H]2CCO2)C1 [Compound 126],1.6 nM
12,O=C(O)c1ccc2nc(CN3CCC(c4cccc5c4OC[C@@H](c4ccc(Cl)c6ccoc46)O5)CC3)n(C[C@@H]3CCO3)c2c1 [Compound 101],0.024 nM
13,CCn1cncc1Cn1c(CN2CCC(c3cccc4c3OC[C@@H](c3ccc(C#N)cc3)O4)CC2)nc2ccc(C(=O)O)cc21 [Compound 105],0.012 nM
14,"N#Cc1ccc([C@@H]2COc3c(cccc3C3CCN(Cc4nc5ccc(C(=O)O)cc5n4CC4CCOC4)CC3)O2)cc1 (stereo partly drawn) [Compound 106, 2-({4-[(2R)-2-(4-cyanophenyl)-2,3-dihydro-1,4-benzodioxin-5-yl]piperidin-1-yl}methyl)-1-[(oxolan-3-yl)methyl]-1H-1,3-benzodiazole-6-carboxylic acid]",1.6 nM
15,O=C(O)c1ccc2nc(CN3CC=C(c4cccc5c4OC[C@@H](c4ccc(Cl)cc4)O5)CC3)n(C[C@@H]3CCO3)c2c1 [Compound 125],0.77 nM
16,"COc1cc(C(=O)O)cc2c1nc(CN1CCC(c3cccc4c3OC[C@@H](c3ccc(Cl)c5ccoc35)O4)CC1)n2C[C@@H]1CCO1 [Compound 120, 2-({4-[(2R)-2-(4-chloro-1-benzofuran-7-yl)-2,3-dihydro-1,4-benzodioxin-5-yl]piperidin-1-yl}methyl)-4-methoxy-1-{[(2S)-oxetan-2-yl]methyl}-1H-1,3-benzodiazole-6-carboxylic acid]",0.005 nM
17,N#CCC1(Cn2c(CN3CCC(c4cccc5c4OC[C@@H](c4ccc(C#N)cc4)O5)CC3)nc3c(F)cc(C(=O)O)cc32)CC1 [Compound 112],0.026 nM

# Now from value to compound:
row,EC50,Compound
1,0.055 nM,O=C(O)c1cc(F)c2nc(CN3CCC(c4cccc5c4OC[C@@H](c4ccc(C(F)F)cc4)O5)CC3)n(C[C@@H]3CCO3)c2c1 [Compound 115]
2,0.011 nM,"COc1cc(C(=O)O)cc2c1nc(CN1CCC(c3cccc4c3OC[C@@H](c3ccc(C#N)cc3)O4)CC1)n2C[C@@H]1CCO1 [Compound 118, 2-({4-[(2R)-2-(4-cyanophenyl)-2,3-dihydro-1,4-benzodioxin-5-yl]piperidin-1-yl}methyl)-4-methoxy-1-{[(2S)-oxetan-2-yl]methyl}-1H-1,3-benzodiazole-6-carboxylic acid]"
3,0.017 nM,"O=C(O)c1cc(F)c2nc(CN3CCC(c4cccc5c4OC[C@@H](c4ccc(Cl)cc4)O5)CC3)n(C[C@@H]3CCO3)c2c1 [Compound 111, 2-({4-[(2R)-2-(4-chlorophenyl)-2,3-dihydro-1,4-benzodioxin-5-yl]piperidin-1-yl}methyl)-4-fluoro-1-{[(2S)-oxetan-2-yl]methyl}-1H-1,3-benzodiazole-6-carboxylic acid]"
4,0.025 nM,"N#Cc1ccc([C@@H]2COc3c(cccc3C3CCN(Cc4nc5c(F)cc(C(=O)O)c(F)c5n4C[C@@H]4CCO4)CC3)O2)cc1 [Compound 108, 2-({4-[(2R)-2-(4-cyanophenyl)-2,3-dihydro-1,4-benzodioxin-5-yl]piperidin-1-yl}methyl)-4,7-difluoro-1-{[(2S)-oxetan-2-yl]methyl}-1H-1,3-benzodiazole-6-carboxylic acid]"
5,0.0012 nM,"O=C(O)c1cc(F)c2nc(CN3CCC(c4cccc5c4OC[C@@H](c4ccc(Cl)c6ccoc46)O5)CC3)n(C[C@@H]3CCO3)c2c1 [Compound 122, 2-({4-[(2R)-2-(4-chloro-1-benzofuran-7-yl)-2,3-dihydro-1,4-benzodioxin-5-yl]piperidin-1-yl}methyl)-4-fluoro-1-{[(2S)-oxetan-2-yl]methyl}-1H-1,3-benzodiazole-6-carboxylic acid]"
6,0.031 nM,O=C(O)c1cc(F)c2nc(CN3CCC(c4cccc5c4OC[C@@H](c4ccc(Cl)cc4)O5)CC3)n(C[C@@H]3CCO3)c2c1F [Compound 121]
7,0.011 nM,"COc1cc(C(=O)O)cc2c1nc(CN1CCC(c3cccc4c3OC[C@@H](c3ccc(Cl)cc3)O4)CC1)n2C[C@@H]1CCO1 [Compound 119, 2-({4-[(2R)-2-(4-chlorophenyl)-2,3-dihydro-1,4-benzodioxin-5-yl]piperidin-1-yl}methyl)-4-methoxy-1-{[(2S)-oxetan-2-yl]methyl}-1H-1,3-benzodiazole-6-carboxylic acid]"
8,0.16 nM,"O=C(O)c1ccc2nc(CN3CCC(c4ccnc5c4OC[C@@H](c4ccc(Cl)cc4)O5)CC3)n(C[C@@H]3CCO3)c2c1 [Compound 130, 2-((4-((R)-3-(4-chlorophenyl)-2,3-dihydro-[1,4]dioxino[2,3-b]pyridin-8-yl)piperidin-1-yl)methyl)-1-(((S)-oxetan-2-yl)methyl)-1H-benzo[d]imidazole-6-carboxylic acid]"
9,0.38 nM,"O=C(O)c1ccc2nc(CN3CCC(c4c(F)ccc5c4OC[C@@H](c4ccc(Cl)cc4)O5)CC3)n(C[C@@H]3CCO3)c2c1 [Compound 129, 2-[[4-[(2R)-2-(4-chlorophenyl)-6-fluoro-2,3-dihydro-1,4-benzodioxin-5-yl]-1-piperidyl]methyl]-3-[[(2S)-oxetan-2-yl]methyl]benzimidazole-5-carboxylic acid]"
10,1.9 nM,CO[C@H]1COC[C@H]1n1c(CN2CCC(c3cccc4c3OC[C@@H](c3ccc(Cl)cc3)O4)CC2)nc2c(F)cc(C(=O)O)cc21 [Compound 123]
11,0.027 nM,"N#Cc1ccc([C@@H]2COc3c(cccc3C3CCN(Cc4nc5c(F)cc(C(=O)O)cc5n4C[C@@H]4CCO4)CC3)O2)cc1 [Compound 104, 2-({4-[(2R)-2-(4-cyanophenyl)-2,3-dihydro-1,4-benzodioxin-5-yl]piperidin-1-yl}methyl)-4-fluoro-1-{[(2S)-oxetan-2-yl]methyl}-1H-1,3-benzodiazole-6-carboxylic acid]"
12,0.029 nM,O=C(O)c1cc(F)c2nc(CN3CCC(c4cccc5c4OC[C@@H](c4ccc(C(F)(F)F)cc4)O5)CC3)n(C[C@@H]3CCO3)c2c1 [Compound 116]
13,0.041 nM,C[C@H]1CC(c2cccc3c2OC[C@@H](c2ccc(C#N)cc2)O3)CCN1Cc1nc2c(F)cc(C(=O)O)cc2n1C[C@@H]1CCO1 (stereo partly drawn) [Compound 109]

# — patent US20260209212A1, “HETEROCYCLIC GLP-1 AGONISTS” (Gasherbrum Bio, Inc., priority 2022, published 2026)
